Source: ChEMBL document CHEMBL3259577, “Antagonists of the kappa opioid receptor” (Bioorg Med Chem Lett, 2014)
pIC50, pKi: −log10 of the molar value. Each block holds one compound with its values, some of them ahead of it. Peptide text beside a SMILES is read from it.

How the values were obtained:
[1] = target: T1, Delta-type opioid receptor (Homo sapiens, UniProt P41143); assay: Displacement of [3H]diprenorphine from delta opioid receptor (unknown origin) expressed in CHO cells membranes; format: cell membranes
T1 sequence (P41143 whole entry): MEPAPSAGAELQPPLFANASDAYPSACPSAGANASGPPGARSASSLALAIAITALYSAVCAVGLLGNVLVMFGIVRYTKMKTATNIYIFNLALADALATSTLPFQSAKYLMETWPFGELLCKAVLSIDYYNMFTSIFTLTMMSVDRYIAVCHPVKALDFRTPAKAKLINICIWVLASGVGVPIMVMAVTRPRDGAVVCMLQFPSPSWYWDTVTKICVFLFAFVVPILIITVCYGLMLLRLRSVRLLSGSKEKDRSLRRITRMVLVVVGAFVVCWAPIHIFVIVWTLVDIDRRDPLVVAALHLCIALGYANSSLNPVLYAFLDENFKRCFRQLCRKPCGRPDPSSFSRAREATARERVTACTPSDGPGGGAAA

Mu-type opioid receptor [2] = target: T2, Mu-type opioid receptor (Homo sapiens, UniProt P35372); assay: Displacement of [3H]diprenorphine from mu opioid receptor (unknown origin) expressed in CHO cells membranes; format: cell membranes
T2 sequence (P35372 whole entry): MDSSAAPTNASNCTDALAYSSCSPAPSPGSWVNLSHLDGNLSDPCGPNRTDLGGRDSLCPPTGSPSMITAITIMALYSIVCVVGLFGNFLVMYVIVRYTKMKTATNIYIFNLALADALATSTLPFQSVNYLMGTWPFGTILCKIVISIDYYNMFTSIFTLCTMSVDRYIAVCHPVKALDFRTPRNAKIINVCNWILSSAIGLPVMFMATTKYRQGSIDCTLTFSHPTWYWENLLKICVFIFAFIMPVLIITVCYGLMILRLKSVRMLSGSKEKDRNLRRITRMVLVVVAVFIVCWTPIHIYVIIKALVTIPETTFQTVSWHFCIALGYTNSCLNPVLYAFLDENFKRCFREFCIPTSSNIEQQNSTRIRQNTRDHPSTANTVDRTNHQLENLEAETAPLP

[3] = target: T3, Kappa-type opioid receptor (Homo sapiens, UniProt P41145); assay: Displacement of [3H]diprenorphine from kappa opioid receptor (unknown origin) expressed in CHO cells membranes; format: cell membranes
T3 sequence (P41145 whole entry): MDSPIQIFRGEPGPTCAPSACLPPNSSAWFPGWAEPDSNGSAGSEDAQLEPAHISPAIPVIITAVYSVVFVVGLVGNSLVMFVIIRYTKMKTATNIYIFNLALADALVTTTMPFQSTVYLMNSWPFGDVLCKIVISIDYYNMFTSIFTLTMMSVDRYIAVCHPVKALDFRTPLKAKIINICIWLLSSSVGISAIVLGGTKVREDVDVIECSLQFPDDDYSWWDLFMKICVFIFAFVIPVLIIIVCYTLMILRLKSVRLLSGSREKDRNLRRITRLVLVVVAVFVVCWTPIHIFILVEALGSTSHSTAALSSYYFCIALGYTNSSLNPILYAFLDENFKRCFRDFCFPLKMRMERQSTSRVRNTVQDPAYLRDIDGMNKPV

[4] = target: Kappa-type opioid receptor (Cavia porcellus, UniProt P41144); assay: Antagonist activity at kappa opioid receptor in guinea pig ileum assessed as inhibition of U50488-stimulated [35S]-GTP[gammaS] binding; format: functional, tissue-based; details: read-out: pA2 (converted)
Sequence of Kappa-type opioid receptor (Cavia porcellus, UniProt P41144) (P41144 whole entry): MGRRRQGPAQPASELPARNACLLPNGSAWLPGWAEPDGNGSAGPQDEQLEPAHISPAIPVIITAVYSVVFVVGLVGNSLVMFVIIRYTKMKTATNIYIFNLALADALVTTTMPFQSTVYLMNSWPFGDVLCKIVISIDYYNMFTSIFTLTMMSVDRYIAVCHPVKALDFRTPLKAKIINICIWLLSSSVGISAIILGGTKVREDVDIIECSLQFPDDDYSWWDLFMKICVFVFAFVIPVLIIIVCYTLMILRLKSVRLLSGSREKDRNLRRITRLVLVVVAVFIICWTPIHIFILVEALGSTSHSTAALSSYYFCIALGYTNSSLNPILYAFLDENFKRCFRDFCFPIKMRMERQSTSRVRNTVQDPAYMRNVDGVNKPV

Mu-type opioid receptor [5] = target: T4, Mu-type opioid receptor (Cavia porcellus, UniProt P97266); assay: Antagonist activity at mu opioid receptor in guinea pig ileum assessed as inhibition of DAMGO-stimulated [35S]-GTP[gammaS] binding; format: functional, tissue-based; details: read-out: pA2 (converted)
T4 sequence (P97266 whole entry): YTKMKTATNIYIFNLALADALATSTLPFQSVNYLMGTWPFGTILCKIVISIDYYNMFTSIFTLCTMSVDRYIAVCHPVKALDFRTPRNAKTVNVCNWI

[6] = target: Sodium-dependent noradrenaline transporter (Homo sapiens, UniProt P23975); assay: Binding affinity to NET (unknown origin)
Sequence of Sodium-dependent noradrenaline transporter (P23975 whole entry): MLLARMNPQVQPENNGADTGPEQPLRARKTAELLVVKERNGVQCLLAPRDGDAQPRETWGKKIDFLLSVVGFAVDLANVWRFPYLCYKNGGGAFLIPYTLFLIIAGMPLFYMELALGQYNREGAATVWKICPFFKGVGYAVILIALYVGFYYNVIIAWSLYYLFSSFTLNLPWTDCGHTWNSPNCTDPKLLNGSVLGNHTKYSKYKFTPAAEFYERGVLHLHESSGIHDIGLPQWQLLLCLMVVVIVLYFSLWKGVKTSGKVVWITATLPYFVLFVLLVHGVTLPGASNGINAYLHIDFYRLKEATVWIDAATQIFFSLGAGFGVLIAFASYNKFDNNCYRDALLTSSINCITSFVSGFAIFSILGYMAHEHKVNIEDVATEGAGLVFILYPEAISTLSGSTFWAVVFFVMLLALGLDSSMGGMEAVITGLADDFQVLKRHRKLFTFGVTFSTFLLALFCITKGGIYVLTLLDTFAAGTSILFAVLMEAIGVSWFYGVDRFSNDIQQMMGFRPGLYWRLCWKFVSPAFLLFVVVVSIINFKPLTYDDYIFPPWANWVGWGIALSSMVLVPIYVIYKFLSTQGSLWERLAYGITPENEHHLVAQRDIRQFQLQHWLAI

[7] = Drug metabolism in mouse liver microsomes assessed as compound remaining after 1 hr; format: ADME; details: read-out: Drug metabolism
D(3) dopamine receptor = D(3) dopamine receptor (Homo sapiens, UniProt P35462); assay: Binding affinity to dopamine D3 receptor (unknown origin)
Sequence of D(3) dopamine receptor (P35462 whole entry): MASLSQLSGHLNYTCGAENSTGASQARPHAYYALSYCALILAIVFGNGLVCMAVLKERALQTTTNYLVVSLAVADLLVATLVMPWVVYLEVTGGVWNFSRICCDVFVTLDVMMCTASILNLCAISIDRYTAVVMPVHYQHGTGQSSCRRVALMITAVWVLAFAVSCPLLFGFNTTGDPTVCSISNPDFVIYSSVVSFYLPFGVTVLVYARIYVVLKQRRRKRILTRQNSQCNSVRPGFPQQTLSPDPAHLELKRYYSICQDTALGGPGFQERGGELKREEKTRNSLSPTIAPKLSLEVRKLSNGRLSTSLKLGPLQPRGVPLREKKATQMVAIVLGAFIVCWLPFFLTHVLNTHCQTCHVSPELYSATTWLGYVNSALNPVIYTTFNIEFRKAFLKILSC

Mu-type opioid receptor [8] = target: T2, Mu-type opioid receptor; assay: Inhibition of mu opioid receptor (unknown origin) using DAMGO by high content imaging beta-arrestin translocation assay
[9] = target: T1, Delta-type opioid receptor; assay: Inhibition of delta opioid receptor (unknown origin) using SNC-80 by high content imaging beta-arrestin translocation assay
Histamine H1 receptor = Histamine H1 receptor (Homo sapiens, UniProt P35367); assay: Binding affinity to histamine H1 receptor (unknown origin)
Sequence of Histamine H1 receptor (P35367 whole entry): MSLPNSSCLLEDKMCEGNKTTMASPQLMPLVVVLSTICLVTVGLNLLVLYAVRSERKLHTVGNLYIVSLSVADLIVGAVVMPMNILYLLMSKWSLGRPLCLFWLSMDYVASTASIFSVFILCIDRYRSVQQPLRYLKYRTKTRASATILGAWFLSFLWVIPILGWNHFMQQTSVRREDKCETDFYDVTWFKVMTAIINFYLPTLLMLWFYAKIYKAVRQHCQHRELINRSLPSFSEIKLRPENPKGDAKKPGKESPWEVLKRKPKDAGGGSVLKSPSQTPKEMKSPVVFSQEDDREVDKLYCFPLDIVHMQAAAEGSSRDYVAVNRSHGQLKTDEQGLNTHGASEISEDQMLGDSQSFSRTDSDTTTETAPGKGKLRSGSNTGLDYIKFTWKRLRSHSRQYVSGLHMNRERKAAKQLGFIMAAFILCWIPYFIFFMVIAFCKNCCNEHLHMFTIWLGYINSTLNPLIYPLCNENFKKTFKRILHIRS

[10] = target: Muscarinic acetylcholine receptor M2 (Homo sapiens, UniProt P08172); assay: Binding affinity to muscarinic M2 receptor (unknown origin)
[11] = target: Muscarinic acetylcholine receptor M4 (Homo sapiens, UniProt P08173); assay: Binding affinity to muscarinic M4 receptor (unknown origin)
Sequence of Muscarinic acetylcholine receptor M4 (P08173 whole entry): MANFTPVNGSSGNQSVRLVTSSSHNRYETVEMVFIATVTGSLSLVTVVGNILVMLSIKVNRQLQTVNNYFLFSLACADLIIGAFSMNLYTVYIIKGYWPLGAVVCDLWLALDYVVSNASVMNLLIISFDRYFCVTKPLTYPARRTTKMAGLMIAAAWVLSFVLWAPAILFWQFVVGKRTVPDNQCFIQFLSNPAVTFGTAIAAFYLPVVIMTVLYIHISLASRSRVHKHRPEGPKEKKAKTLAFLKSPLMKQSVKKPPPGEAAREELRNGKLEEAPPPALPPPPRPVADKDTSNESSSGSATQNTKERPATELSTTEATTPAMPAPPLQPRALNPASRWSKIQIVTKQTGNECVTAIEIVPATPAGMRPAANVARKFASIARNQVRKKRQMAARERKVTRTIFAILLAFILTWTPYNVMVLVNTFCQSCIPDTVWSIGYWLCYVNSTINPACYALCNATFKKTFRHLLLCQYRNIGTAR

[12] = target: Muscarinic acetylcholine receptor M3 (Homo sapiens, UniProt P20309); assay: Binding affinity to muscarinic M3 receptor (unknown origin)
Sequence of Muscarinic acetylcholine receptor M3 (P20309 whole entry): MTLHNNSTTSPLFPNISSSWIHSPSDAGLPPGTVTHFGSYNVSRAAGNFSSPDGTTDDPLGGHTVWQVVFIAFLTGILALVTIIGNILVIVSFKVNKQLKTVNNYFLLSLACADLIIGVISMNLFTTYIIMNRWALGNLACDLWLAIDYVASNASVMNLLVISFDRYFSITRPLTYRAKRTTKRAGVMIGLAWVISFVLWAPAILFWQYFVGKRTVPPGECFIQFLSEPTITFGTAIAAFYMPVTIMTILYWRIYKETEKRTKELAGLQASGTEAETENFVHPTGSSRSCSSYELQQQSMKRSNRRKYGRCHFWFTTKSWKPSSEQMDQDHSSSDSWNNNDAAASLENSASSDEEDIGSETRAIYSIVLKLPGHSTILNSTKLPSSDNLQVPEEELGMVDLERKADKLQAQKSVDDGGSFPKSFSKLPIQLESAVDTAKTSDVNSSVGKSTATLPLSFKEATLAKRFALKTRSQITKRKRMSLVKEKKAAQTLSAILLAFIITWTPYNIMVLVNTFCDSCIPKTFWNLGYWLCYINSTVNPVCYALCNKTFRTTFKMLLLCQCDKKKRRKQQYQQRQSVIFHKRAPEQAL

[13] = target: T3, Kappa-type opioid receptor; assay: Inhibition of kappa opioid receptor (unknown origin) using dynorphin A by high content imaging beta-arrestin translocation assay
[14] = target: Sigma non-opioid intracellular receptor 1 (Homo sapiens, UniProt Q99720); assay: Binding affinity to sigma-1 receptor (unknown origin)
Sequence of Sigma non-opioid intracellular receptor 1 (Q99720 whole entry): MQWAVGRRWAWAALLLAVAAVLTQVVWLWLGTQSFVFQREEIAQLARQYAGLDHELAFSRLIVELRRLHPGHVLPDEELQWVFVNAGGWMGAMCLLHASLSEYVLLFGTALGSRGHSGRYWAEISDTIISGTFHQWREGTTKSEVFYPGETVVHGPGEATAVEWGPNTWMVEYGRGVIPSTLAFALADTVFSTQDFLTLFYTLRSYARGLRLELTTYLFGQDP

[15] = target: T3, Kappa-type opioid receptor; assay: Inhibition of kappa opioid receptor (unknown origin) using dynorphin A by DiscoveryRx b-arrestin PathHunter assay
Mu-type opioid receptor [16] = target: T4, Mu-type opioid receptor; assay: (§1) Antagonist activity at mu opioid receptor in guinea pig caudate assessed as inhibition of DAMGO-stimulated [35S]-GTP[gammaS] binding; format: functional
[17] = (§2) Antagonist activity at delta opioid receptor in guinea pig caudate assessed as inhibition of SNC-80-stimulated [35S]-GTP[gammaS] binding; design: species or system Cavia porcellus
Cavia porcellus = species on record: Cavia porcellus; assay: as §2
[18] = target: Kappa-type opioid receptor (Cavia porcellus) (UniProt P41144)
Sequence of Kappa-type opioid receptor (Cavia porcellus) (P41144 whole entry): as the sequence (P41144 whole entry) above

[19] = target: Mu-type opioid receptor (Cavia porcellus) (UniProt P97266); assay: as §1; format: functional
Sequence of Mu-type opioid receptor (Cavia porcellus) (P97266 whole entry): as the sequence (P97266 whole entry) above

Mu-type opioid receptor [20] = target: T2, Mu-type opioid receptor; assay: Antagonist activity at human cloned mu opioid receptor expressed in CHO cells assessed as inhibition of DAMGO-stimulated [35S]-GTP[gammaS] binding; format: cell-based
Mus musculus = species on record: Mus musculus; assay: Antinociceptive activity in mouse assessed as reversal of U50488-induced withdrawl latencies; format: functional
[21] = target: T3, Kappa-type opioid receptor; assay: Antagonist activity at human cloned kappa opioid receptor expressed in CHO cells assessed as inhibition of Dynorphin A-stimulated [35S]-GTP[gammaS] binding; format: functional, cell-based
CHO [22] = assay: Selectivity ratio of Ki for mu opioid receptor (unknown origin) expressed in CHO cell membranes to Ki for kappa opioid receptor (unknown origin) expressed in CHO cell membranes; format: cell-based; details: Homo sapiens
CHO [23] = assay: Selectivity ratio of Ki for delta opioid receptor (unknown origin) expressed in CHO cell membranes to Ki for kappa opioid receptor (unknown origin) expressed in CHO cell membranes; format: cell-based; details: Homo sapiens
[24] = Half life in rat at 1 mg/kg, iv; format: ADME, organism-based; design: dose 1 mg/kg, route intravenous; details: in vivo
Homo sapiens = species on record: Homo sapiens; assay: Selectivity ratio for OPRK (unknown origin) to OPRM (unknown origin)
[25] = Oral bioavailability in rat at 10 mg/kg; format: ADME, organism-based; details: in vivo
[26] = Cmax in rat at 1 mg/kg, iv; format: ADME, organism-based; design: dose 1 mg/kg, route intravenous; details: in vivo
[27] = AUC in rat at 10 mg/kg, po; format: ADME, organism-based; design: dose 10 mg/kg, route oral; details: plasma
[28] = Cmax in rat at 10 mg/kg, po; format: ADME, organism-based; design: dose 10 mg/kg, route oral; details: in vivo
[29] = AUC in rat at 1 mg/kg, iv; format: ADME, organism-based; design: dose 1 mg/kg, route intravenous; details: plasma
[30] = Tmax in rat at 10 mg/kg, po; format: ADME, organism-based; design: dose 10 mg/kg, route oral; details: in vivo
[31] = Tmax in rat at 1 mg/kg, iv; format: ADME, organism-based; design: dose 1 mg/kg, route intravenous; details: in vivo
Rattus norvegicus = assay: Analgesic activity in po dosed rat assessed as inhibition of formalin response; format: functional
[32] = Half life in rat at 10 mg/kg, po; format: ADME, organism-based; design: dose 10 mg/kg, route oral; details: in vivo
[33] = Clearance in rat at 1 mg/kg, iv; format: ADME, organism-based; design: dose 1 mg/kg, route intravenous; details: in vivo

SMILES: C[C@H]1CN(CCOC(=O)[C@H]2Cc3ccc(O)cc3CN2)CC[C@@]1(C)c1cccc(O)c1
pKi [1]: 6.32
pKi (Mu-type opioid receptor [2]): 6.73
pKi [3]: 6.80
Kb [4]: 135 nM
Kb (Mu-type opioid receptor [5]): 97.7 nM

pKi [6]: > 6.00
remaining at 1 h [7]: 7.34%
pKi (D(3) dopamine receptor): > 6.00
pIC50 (Mu-type opioid receptor [8]): < 4.49
pIC50 [9]: < 4.49
pKi (Histamine H1 receptor): > 6.00
SMILES: COc1ccc(N2CCN(CCCNC(=O)Cn3c(=O)c4cccn4c4c(C)ccnc43)CC2)cc1

pKi [10]: > 6.00
pKi [11]: > 6.00
pKi [12]: > 6.00
pIC50 [13]: 7.52
pIC50 [9]: < 4.49
pKi [14]: > 6.00
pIC50 [15]: 7.22
SMILES: Cc1ccc(S(=O)(=O)NCc2ccc(C(=O)NCCN(Cc3ccccc3)C(C)(C)C)cc2)cc1

SMILES: CC(C)[C@@H](CN1CC[C@@](C)(c2cccc(O)c2)[C@@H](C)C1)NC(=O)[C@H]1Cc2ccc(O)cc2CN1 [JDTIC]
pKi (Mu-type opioid receptor [16]): 8.67
pKi [17]: < 6.52

SMILES: CCOC(=O)C(CN1CC[C@@](C)(c2cccc(O)c2)[C@@H](C)C1)OC(=O)[C@H]1Cc2ccc(O)cc2CN1 (some centres not stated)
pKi [1]: 5.97
pKi (Mu-type opioid receptor [2]): 7.58
pKi [3]: 8.76
Kb [4]: 2.4 nM
Kb (Mu-type opioid receptor [5]): < 5010 nM

SMILES: CC(=O)N1Cc2cc(O)ccc2C[C@@H]1C(=O)N[C@H](CN1CC[C@@](C)(c2cccc(O)c2)[C@@H](C)C1)C(C)C
Ke (Cavia porcellus): > 300 nM

SMILES: CC(C)[C@@H](CN1CC[C@@](C)(c2cccc(O)c2)[C@@H](C)C1)NC(=O)[C@@H](N)Cc1ccc(O)cc1
Ke (Cavia porcellus): 452 nM

SMILES: C[C@H]1CN(CCCOC(=O)[C@H]2Cc3ccc(O)cc3CN2)CC[C@@]1(C)c1cccc(O)c1
pKi [1]: 6.66
pKi (Mu-type opioid receptor [2]): 8.18
pKi [3]: 7.60
Kb [4]: 174 nM
Kb (Mu-type opioid receptor [5]): 93.3 nM

pIC50 [13]: 8.40
pIC50 [9]: < 4.49
pIC50 [15]: 6.72
SMILES: COc1ccc(N2CCN(CCCNC(=O)Cn3c(=O)c4cccn4c4c(C)ccnc43)CC2)c(OC)c1

pIC50 (Mu-type opioid receptor [8]): < 4.49
pIC50 [9]: < 4.49
SMILES: COc1ccc(N2CCN(CCCNC(=O)Cn3c(=O)c4cccn4c4ccccc43)CC2)cc1

SMILES: CC(C)CC(=O)N1Cc2cc(O)ccc2C[C@@H]1C(=O)N[C@H](CN1CC[C@@](C)(c2cccc(O)c2)[C@@H](C)C1)C(C)C
Ke [18]: 0.16 nM
Ke [19]: 29 nM
Ke (Cavia porcellus): 628 nM

pIC50 [13]: < 4.49
pIC50 (Mu-type opioid receptor [8]): < 4.49
pIC50 [9]: < 4.49
pIC50 [15]: < 4.70
SMILES: Cc1ccc(S(=O)(=O)NCc2ccc(C(=O)NCCCN(Cc3ccccc3)C(C)C)cc2)cc1

SMILES: C[C@@H]1NC(=O)[C@H](Cc2c[nH]c3ccccc23)NC(=O)[C@H](Cc2ccccc2)NC(=O)[C@@H]2CCCN2C1=O (cyclo(APFW))
Ke (Mu-type opioid receptor [20]): 7.3 nM
Time (Mus musculus): <18 h
Kb [21]: 2.6 nM

SMILES: CC[C@H](C)[C@@H]1NC(=O)[C@H](CCCNC(=N)N)NC(=O)[C@@H](NC(=O)[C@H](Cc2ccccc2)NC(=O)CNC(=O)CNC(=O)[C@H](Cc2ccc(O)cc2)NCc2ccccc2)CC(=O)NC[C@@H](C(=O)N[C@@H](CCCNC(=N)N)C(=O)N2CCC[C@H]2C(=O)N[C@@H](CCCCN)C(N)=O)NC1=O
Ratio Ki (CHO [22]): 194
Ratio Ki (CHO [23]): > 330

SMILES: Cc1cc(C)cc([C@@H]2CCCN2Cc2ccc(Oc3ccc(C(N)=O)cc3F)cc2)c1 [ATICAPRANT]
half-life [24]: 1.8 h
Ratio (Homo sapiens): 43
bioavailability [25]: 25.4%
Cmax [26]: 334 ng/mL
AUC [27]: 466 ng·h/mL
Cmax [28]: 95 ng/mL
AUC [29]: 186 ng·h/mL
Tmax [30]: 2 h
Tmax [31]: 0 h
ED50 (Rattus norvegicus): 0.4 mg/kg
half-life [32]: 3.8 h
clearance [33]: 89.3 mL/min/kg

SMILES: CC(C)[C@@H](CN1CC[C@@](C)(c2cccc(O)c2)[C@@H](C)C1)NC(=O)CCc1ccc(O)cc1
Ke (Cavia porcellus): 450 nM
